Results as given in article PMC6089211, “Expression and purification of human diacylglycerol kinase α from baculovirus-infected insect cells for structural studies” (PeerJ, 2018).

Molecular target: T1, diacylglycerol kinase α (DGKα) (Homo sapiens, UniProt P23743)
T1 construct: gene DGKA; full-length DGKα (aa 1–735), N-terminal His×6 tag, Sf9-expressed
Experiment: Michaelis–Menten kinetics, mixed micelle ADP-Glo assay (Km)
Assay type: biochemical

T1 sequence (P23743 whole entry, the tested form may be a part): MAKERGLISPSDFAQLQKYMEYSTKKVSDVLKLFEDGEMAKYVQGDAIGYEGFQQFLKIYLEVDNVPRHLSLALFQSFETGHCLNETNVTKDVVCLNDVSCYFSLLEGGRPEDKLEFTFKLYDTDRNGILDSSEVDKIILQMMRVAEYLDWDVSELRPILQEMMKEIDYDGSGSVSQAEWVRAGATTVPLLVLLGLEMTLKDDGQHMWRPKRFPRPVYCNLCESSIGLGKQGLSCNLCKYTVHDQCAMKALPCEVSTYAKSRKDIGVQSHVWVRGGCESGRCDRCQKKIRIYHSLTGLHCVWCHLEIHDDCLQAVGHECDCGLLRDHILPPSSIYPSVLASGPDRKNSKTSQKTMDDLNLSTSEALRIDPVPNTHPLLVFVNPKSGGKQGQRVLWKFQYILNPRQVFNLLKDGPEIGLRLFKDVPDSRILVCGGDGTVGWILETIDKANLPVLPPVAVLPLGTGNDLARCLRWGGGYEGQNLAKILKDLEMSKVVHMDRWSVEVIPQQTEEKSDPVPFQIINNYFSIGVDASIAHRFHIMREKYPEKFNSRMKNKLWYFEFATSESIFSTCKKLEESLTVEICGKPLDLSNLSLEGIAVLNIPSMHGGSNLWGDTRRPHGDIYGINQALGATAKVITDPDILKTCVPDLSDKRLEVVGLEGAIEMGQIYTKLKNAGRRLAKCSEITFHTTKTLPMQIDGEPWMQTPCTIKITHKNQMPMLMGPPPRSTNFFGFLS

Km: 1.06 ± 0.21 mol%
Compound: CCCCCCCC/C=C\CCCCCCCC(=O)OC[C@H](CO)OC(=O)CCCCCCC/C=C\CCCCCCCC [1,2-dioleolyl-sn-glycerol]
